The source of these data is EP0333004A2, “Light sensitive diazonium compounds, process for their preparation and their use” (priority 1988, dated 1989).

Data set [1] in a line: Onset of exothermic decomposition (EZ). The following applies: for Exotherme Zer-setzung (EZ): temperature at which exothermic decomposition begins. Format: physicochemical.
The nature of data set [2]: Dust explosion class (ST), safety characteristic. In kind it is physicochemical. The following applies: solid isolated diazonium salt form.
A short description of data set [3]: Combustion number (Brennziffer, BZ), safety characteristic. In kind it is physicochemical. The following applies: solid isolated diazonium salt form.
A short description of data set [4]: Impact sensitivity. Format: physicochemical.
Data set [5] in a line: Explosion hazard. Format: physicochemical.
A short description of data set [6]: Solubility in water. In kind it is physicochemical. The following applies: 20 °C.
The nature of data set [7]: Differential thermal analysis (DTA), violence of decomposition. In kind it is physicochemical. As to conditions: characterises the violence of decomposition.
The conditions of data set [8]: species and route not given; cited from earlier work.

For “4-N,N-Dimethylaminobenzoldiazonium-sulfosalicylat [Sulfosalicylat R1=R2=CH3 R3 = H]”, the “exotherme Zersetzung, höher als bei dem entsprechenden Zinkchlorid-Doppelsalz” value in data set [1] (difference to the corresponding zinc chloride double salt) is 40 °C. The “Exotherme Zer-setzung (EZ)” value in data set [1] was found to be 140 °C. Also, the “Staubexplo-sionsklasse (ST)” value in data set [2] turned out to be 1. For the same compound, in data set [3], the “Brenn-ziffer (BZ)” value is given as 3. For the same compound, in data set [4], the schlagemp-findlich result is given as “nein”. Moreover, in data set [5], the explosions-gefährlich entry is recorded as “nein”. In data set [6], the “Löslichkeit in Wasser” value is 10,4 g/l. For the same compound, the “Differential-thermoanalyse (DTA)” value in data set [7] is recorded as -490 kJ/kg.
For “4-N,N-Dimethylaminobenzoldiazoniumchlorzinkat [ZnCl2 stabilisiert R1=R2=CH3 R3 = H, reference compound]”, the “Exotherme Zer-setzung (EZ)” value in data set [1] worked out at 100 °C. Besides, the “Staubexplo-sionsklasse (ST)” value in data set [2] is listed as 0. Moreover, in data set [3], the “Brenn-ziffer (BZ)” value is listed as 3. The schlagemp-findlich entry in data set [4] is reported as “nein”. Further, in data set [5], the explosions-gefährlich result is given as “nein”. Also, the “Differential-thermoanalyse (DTA)” value in data set [7] was -720 kJ/kg.
For `CN(C)c1ccc([N+]#N)cc1` [4-N,N-Dimethylaminobenzoldiazonium-sulfoisophthalat, reference compound], the solubility in data set [6] (read-out: Löslichkeit in Wasser) amounted to 3800 µg/mL.
Turning to `Cc1cc([N+]#N)ccc1N1CCCC1` [Sulfosalicylat R1,R2=(CH2)4 R3 = CH3, 3-Methyl-4-N-pyrrolidinobenzoldiazonium-sulfosalicylat], the “Exotherme Zer-setzung (EZ)” value in data set [1] came out at 120 °C. Further, in data set [2], the “Staubexplo-sionsklasse (ST)” value turned out to be 1. Also, in data set [3], the “Brenn-ziffer (BZ)” value came out at 3. Moreover, in data set [4], the schlagemp-findlich result was “nein”. The explosions-gefährlich entry in data set [5] is “nein”. The “Differential-thermoanalyse (DTA)” value in data set [7] is -400 kJ/kg.
Consider `O=C(O)c1cc(S(=O)(=O)O)ccc1O` [Sulfosalicylsäure], for which the “LD₅₀-Wert (LD - Letale Dosis)” value in data set [8] is reported as 2450 mg/kg.
